Experimental data from patent publication US8940865B2, “Myocardial peptide, preparation method and uses thereof” (Dalian Zhen-Ao Pharmaceutical Co, Ltd., priority 2008, dated 2015).

What was measured:
[1] = test system: ischemia/reperfusion damaged rat; experiment: Preventive administration, ischemia/reperfusion (LAD ligation) rat model; type: in vivo, SD rat; details: preventive i.v. 30 min before ligation; for MIS (myocardial infarct size): ischemic area weight/whole heart weight; for CK / LDH / MDA / SOD: rat serum
Description: 70 SD rats (250˜300 g per rat) were taken, wherein, 60 rats were divided into 6 groups evenly and randomly according to weight, every 10 of each group, the remains are kept for replacement of dead animals of each group.
Normal Control Group: carrying out sham operation, threading a silk suture through the left anterior descending coronary artery (LAD) without ligation;
Model Group: intravenous injecting saline solution of 5 ml/kg 30 minutes before ligation, and the preparation of hypoxia/reoxygenation model is the same as Normal Control Group;
Positive Control Group: intravenous injecting Verapamil of 1 ml/kg 30 min before ligation, preparation of the hypoxia/reoxygenation model is the same as Normal Control Group. […]
Preparation of the Model:
Intraperitoneal injecting 6% Urethane with 20 ml/kg to anaesthetize the animal, fixing the animal on operating table in supine position; being connected with the electrocardiograph to detect the limb II lead electrocardiogram, tracheal intubating and connecting the animal with respirators, taking continuous positive end-expiratory pressure with tidal volume of 6 ml/200 g, frequency of 55/min and breathing ratio of 2:1. Carrying out thoracotomy on the gap between the forth and the fifth ribs of the left border of sternum, separating the ribs and removing the pericardium. Ligating at the left anterior descending coronary artery by using 6/0 silk suture by the sign of left auricle lower margin, and setting a piece of polyethylene pipe with diameter of 1 mm between the ligation silk suture and blood vessel. Ligating the silk suture to press the left anterior descending coronary artery by the polyethylene pipe and cause myocardial ischemia. Taking part of myocardium becoming grey and electrocardiogram S-T segment raising as the sign of that the left anterior descending coronary artery is ligated successfully. Taking out the polyethylene pipe carefully to cause the reperfusion. Verifying the success of reoxygenation by reactive hyperemia of ischemia area and the descending of the raised S-T segment by ½. Reoxygenation for 30 minutes, then sampling blood from abdominal aorta to prepare serum which is used to measure the biochemical index (measuring the content of CK, LDH, MDA, SPD according to the Reagent kits Instruction).
Rat's heart was taken and after being blooded, the residual blood in the ventricle was cleaned by normal saline to weight the weight of whole heart. Fat was removed, the heart was crosscut into 4˜5 pieces and was put into a tube, to be carried out NBT dye at 37° C. (dying the normal tissue rather than the ischemic tissue), taking photographs. The ischemic area of the myocardium was cut to take a weighing, and then the myocardial infarct size (MIS) was calculated by the ratio of weight of the ischemic area of the myocardium to whole heart weight, which was present by percentage.

[2] = test system: primary culture myocardium cell damaged by hypoxia/reoxygenation; experiment: Anti-hypoxia/reoxygenation injury effect on primary culture myocardium cell (MTT); type: cell-based, Neonatal SD rat
From the text: Take ventricle from Neonatal SD rat, wash with D-Hank's and cut to small pieces, digest with collagenase II to obtain the myocardium cell and fibroblast, which are cultivated with high glucose DMEM (dmem-h-15) culture medium containing 15% fetal bovine serum. Remove the fibroblast through differential adhesion and chemistry method, and inoculate myocardium cell on the 96-well plates.
2.1.3 Anti-Hypoxia/Reoxygenation Injury Effect of CMPC to Primary Culture Myocardium Cell.
Cell cultivation method is the same as that in 2.1.1
Preparation of model: Preparing the model by using the myocardium cell cultured for 48˜72 h, dividing the cell on the culture plate to following groups: Control Group, Model Group, Verapamil Group (2, 0.4, 0.08 mg/l final concentration) and CMPM Group (final concentration of 50, 10, 2, 0.4, 0.08, 0.016, 0.0032 mg/l), 3 wells for every group. Except the Control Group, the other groups are prepared by following method: placing the monolayer myocardium cell on center of culture plate on low glucose medium (containing Verapamil or CMPM with corresponding concentration), then placing the culture plate into the vacuum drying machine, filling nitrogen, and hermetically culturing, causing myocardial injury after oxygen lack for 15 hours, then being cultured for 1 hour by high glucose DMEM medium (95% atmosphere and 5% CO2) to cause reoxygention injury. Measuring the absorbance value at 540 nm by using MTT method, and the same as above, calculating the protective rate to figure out EC50.

Sequence: KGAWSNVLRGMGGAF [CMPC, Lys-Gly-Ala-Trp-Ser-Asn-Val-Leu-Arg-Gly-Met-Gly-Gly-Ala-Phe]
- MIS (myocardial infarct size) ([1]; Dosage 0.2 mg/kg): 4.67 ± 0.74 %
- MIS (myocardial infarct size) ([1]; Dosage 0.6 mg/kg): 4.17 ± 0.62 %
- MIS (myocardial infarct size) ([1]; Dosage 1.8 mg/kg): 3.47 ± 1.08 %
- CK ([1]; Dosage 0.2 mg/kg): 2.238 ± 0.274 U/ml
- LDH ([1]; Dosage 0.2 mg/kg): 7555.34 ± 600.16 U/L
- MDA ([1]; Dosage 0.2 mg/kg): 4.642 ± 0.978 nmol/mL
- SOD ([1]; Dosage 0.2 mg/kg): 134.85 ± 12.55 U/ml
- CK ([1]; Dosage 0.6 mg/kg): 2.172 ± 0.329 U/ml
- LDH ([1]; Dosage 0.6 mg/kg): 7531.58 ± 414.64 U/L
- MDA ([1]; Dosage 0.6 mg/kg): 4.847 ± 0.570 nmol/mL
- SOD ([1]; Dosage 0.6 mg/kg): 130.43 ± 10.55 U/ml
- CK ([1]; Dosage 1.8 mg/kg): 2.045 ± 0.358 U/ml
- LDH ([1]; Dosage 1.8 mg/kg): 7453.80 ± 366.11 U/L
- MDA ([1]; Dosage 1.8 mg/kg): 4.371 ± 0.47 nmol/mL
- SOD ([1]; Dosage 1.8 mg/kg): 135.67 ± 8.64 U/ml
- % (protective rate) ([2]; Plate 1, Dosage 0.0032 mg/L): 4.11%
- A540 ([2]; Plate 1, Dosage 0.0032 mg/L): 0.496 ± 0.031
- % (protective rate) ([2]; Plate 1, Dosage 0.016 mg/L): 14.69%
- A540 ([2]; Plate 1, Dosage 0.016 mg/L): 0.526 ± 0.032
- % (protective rate) ([2]; Plate 1, Dosage 0.08 mg/L): 26.09%
- A540 ([2]; Plate 1, Dosage 0.08 mg/L): 0.558 ± 0.025
- % (protective rate) ([2]; Plate 1, Dosage 0.4 mg/L): 38.95%
- A540 ([2]; Plate 1, Dosage 0.4 mg/L): 0.594 ± 0.043
- % (protective rate) ([2]; Plate 1, Dosage 2 mg/L): 28.91%
- A540 ([2]; Plate 1, Dosage 2 mg/L): 0.566 ± 0.057
- % (protective rate) ([2]; Plate 1, Dosage 10 mg/L): 17.74%
- A540 ([2]; Plate 1, Dosage 10 mg/L): 0.534 ± 0.033
- % (protective rate) ([2]; Plate 1, Dosage 50 mg/L): 9.05%
- A540 ([2]; Plate 1, Dosage 50 mg/L): 0.510 ± 0.030
- % (protective rate) ([2]; Plate 2, Dosage 0.0032 mg/L): 20.37%
- A540 ([2]; Plate 2, Dosage 0.0032 mg/L): 0.543 ± 0.052
- % (protective rate) ([2]; Plate 2, Dosage 0.016 mg/L): 22.85%
- A540 ([2]; Plate 2, Dosage 0.016 mg/L): 0.550 ± 0.024
- % (protective rate) ([2]; Plate 2, Dosage 0.08 mg/L): 48.52%
- A540 ([2]; Plate 2, Dosage 0.08 mg/L): 0.622 ± 0.047
- % (protective rate) ([2]; Plate 2, Dosage 0.4 mg/L): 40.20%
- A540 ([2]; Plate 2, Dosage 0.4 mg/L): 0.599 ± 0.032
- % (protective rate) ([2]; Plate 2, Dosage 2 mg/L): 30.99%
- A540 ([2]; Plate 2, Dosage 2 mg/L): 0.573 ± 0.052
- % (protective rate) ([2]; Plate 2, Dosage 10 mg/L): 19.36%
- A540 ([2]; Plate 2, Dosage 10 mg/L): 0.540 ± 0.026
- % (protective rate) ([2]; Plate 2, Dosage 50 mg/L): 18.12%
- A540 ([2]; Plate 2, Dosage 50 mg/L): 0.536 ± 0.036
- % (protective rate) ([2]; Plate 3, Dosage 0.0032 mg/L): 15.86%
- A540 ([2]; Plate 3, Dosage 0.0032 mg/L): 0.763 ± 0.018
- % (protective rate) ([2]; Plate 3, Dosage 0.016 mg/L): 24.20%
- A540 ([2]; Plate 3, Dosage 0.016 mg/L): 0.777 ± 0.014
- % (protective rate) ([2]; Plate 3, Dosage 0.08 mg/L): 38.05%
- A540 ([2]; Plate 3, Dosage 0.08 mg/L): 0.800 ± 0.020
- % (protective rate) ([2]; Plate 3, Dosage 0.4 mg/L): 47.29%
- A540 ([2]; Plate 3, Dosage 0.4 mg/L): 0.815 ± 0.014
- % (protective rate) ([2]; Plate 3, Dosage 2 mg/L): 64.26%
- A540 ([2]; Plate 3, Dosage 2 mg/L): 0.843 ± 0.032
- % (protective rate) ([2]; Plate 3, Dosage 10 mg/L): 34.43%
- A540 ([2]; Plate 3, Dosage 10 mg/L): 0.790 ± 0.023
- % (protective rate) ([2]; Plate 3, Dosage 50 mg/L): 14.96%
- A540 ([2]; Plate 3, Dosage 50 mg/L): 0.761 ± 0.019
